Laboratory results: ChEMBL document CHEMBL3112450, “Synthesis and in vitro antitumor evaluation of primary amine substituted quinazoline linked benzimidazole” (Bioorg Med Chem Lett, 2014)

Tests used:
Assay type in all cases: functional
[1] = test system: COLO 205; assay: Cytotoxicity against human COLO205 cells assessed as cell growth at 10^-8 M after 48 hrs by SRB assay; conditions: COLO 205, 48 h, read-out: Activity
[2] = test system: SK-MEL-28; assay: Cytotoxicity against human SK-MEL-28 cells assessed as cell growth at 10^-8 M after 48 hrs by SRB assay; conditions: SK-MEL-28, 48 h, read-out: Activity
[3] = test system: 786-0; assay: Cytotoxicity against human 786-0 cells assessed as cell growth at 10^-7 M after 48 hrs by SRB assay; conditions: 786-0, 48 h, read-out: Activity
[4] = test system: SF-539; assay: Cytotoxicity against human SF539 cells after 48 hrs by SRB assay; conditions: SF-539, 48 h
[5] = Cytotoxicity against human UO31 cells assessed as cell growth at 10^-7 M after 48 hrs by SRB assay; conditions: UO-31, 48 h, read-out: Activity
[6] = test system: BT-549; assay: Cytotoxicity against human BT549 cells assessed as cell growth at 10^-6 M after 48 hrs by SRB assay; conditions: BT-549, 48 h, read-out: Activity
[7] = test system: HCT-15; assay: Cytotoxicity against human HCT15 cells after 48 hrs by SRB assay; conditions: HCT-15, 48 h
[8] = test system: DU-145; assay: Cytotoxicity against human DU145 cells assessed as cell growth at 10^-8 M after 48 hrs by SRB assay; conditions: DU-145, 48 h, read-out: Activity
[9] = test system: T47D; assay: Cytotoxicity against human T47D cells assessed as cell growth at 10^-8 M after 48 hrs by SRB assay; conditions: read-out: Activity
[10] = test system: CAKI-1; assay: Cytotoxicity against human Caki1 cells assessed as cell growth at 10^-8 M after 48 hrs by SRB assay; conditions: CAKI-1, 48 h, read-out: Activity
[11] = test system: DU-145; assay: Cytotoxicity against human DU145 cells assessed as cell growth at 10^-4 M after 48 hrs by SRB assay; conditions: DU-145, 48 h, read-out: Activity
[12] = test system: T47D; assay: Cytotoxicity against human T47D cells assessed as cell growth at 10^-6 M after 48 hrs by SRB assay; conditions: read-out: Activity
[13] = test system: CAKI-1; assay: Cytotoxicity against human Caki1 cells assessed as cell growth at 10^-6 M after 48 hrs by SRB assay; conditions: CAKI-1, 48 h, read-out: Activity
[14] = Cytotoxicity against human NCI-ADR-RES cells assessed as cell growth at 10^-4 M after 48 hrs by SRB assay; conditions: read-out: Activity
[15] = test system: U-251; assay: Cytotoxicity against human U251 cells assessed as cell growth at 10^-7 M after 48 hrs by SRB assay; conditions: U-251, 48 h, read-out: Activity
[16] = test system: OVCAR-3; assay: Cytotoxicity against human OVCAR3 cells after 48 hrs by SRB assay; conditions: OVCAR-3, 48 h
[17] = test system: HT-29; assay: Cytotoxicity against human HT-29 cells assessed as cell growth at 10^-4 M after 48 hrs by SRB assay; conditions: HT-29, 48 h, read-out: Activity
[18] = test system: NCI-H522; assay: Cytotoxicity against human NCI-H522 cells assessed as cell growth at 10^-7 M after 48 hrs by SRB assay; conditions: NCI-H522, 48 h, read-out: Activity
[19] = test system: SF-295; assay: Cytotoxicity against human SF295 cells assessed as cell growth at 10^-6 M after 48 hrs by SRB assay; conditions: SF-295, 48 h, read-out: Activity
[20] = Cytotoxicity against human OVCAR5 cells assessed as cell growth at 10^-7 M after 48 hrs by SRB assay; conditions: OVCAR-5, 48 h, read-out: Activity
[21] = test system: NCI-H23; assay: Cytotoxicity against human NCI-H23 cells after 48 hrs by SRB assay; conditions: NCI-H23, 48 h
[22] = test system: M14; assay: Cytotoxicity against human M14 cells assessed as cell growth at 10^-7 M after 48 hrs by SRB assay; conditions: M14, 48 h, read-out: Activity
[23] = test system: M14; assay: Cytotoxicity against human M14 cells after 48 hrs by SRB assay; conditions: M14, 48 h
[24] = test system: CCRF-CEM; assay: Cytotoxicity against human CCRF-CEM cells assessed as cell growth at 10^-8 M after 48 hrs by SRB assay; conditions: read-out: Activity
[25] = test system: SR; assay: Cytotoxicity against human SR cells after 48 hrs by SRB assay
[26] = test system: SF-539; assay: Cytotoxicity against human SF539 cells assessed as cell growth at 10^-7 M after 48 hrs by SRB assay; conditions: SF-539, 48 h, read-out: Activity
[27] = test system: HOP-92; assay: Cytotoxicity against human HOP92 cells assessed as cell growth at 10^-7 M after 48 hrs by SRB assay; conditions: HOP-92, 48 h, read-out: Activity
[28] = test system: NCI-H23; assay: Cytotoxicity against human NCI-H23 cells assessed as cell growth at 10^-7 M after 48 hrs by SRB assay; conditions: NCI-H23, 48 h, read-out: Activity
[29] = test system: HCT-116; assay: Cytotoxicity against human HCT116 cells assessed as cell growth at 10^-7 M after 48 hrs by SRB assay; conditions: HCT-116, 48 h, read-out: Activity
[30] = test system: HL-60(TB); assay: Cytotoxicity against human HL-60(TB) cells assessed as cell growth at 10^-8 M after 48 hrs by SRB assay; conditions: HL-60, 48 h, read-out: Activity
[31] = Cytotoxicity against human OVCAR4 cells assessed as cell growth at 10^-6 M after 48 hrs by SRB assay; conditions: OVCAR-4, 48 h, read-out: Activity
[32] = test system: TK-10; assay: Cytotoxicity against human TK10 cells assessed as cell growth at 10^-7 M after 48 hrs by SRB assay; conditions: TK-10, 48 h, read-out: Activity
[33] = Cytotoxicity against human UO31 cells assessed as cell growth at 10^-6 M after 48 hrs by SRB assay; conditions: UO-31, 48 h, read-out: Activity
[34] = test system: HOP-92; assay: Cytotoxicity against human HOP92 cells after 48 hrs by SRB assay; conditions: HOP-92, 48 h
[35] = test system: U-251; assay: Cytotoxicity against human U251 cells assessed as cell growth at 10^-8 M after 48 hrs by SRB assay; conditions: U-251, 48 h, read-out: Activity
[36] = test system: TK-10; assay: Cytotoxicity against human TK10 cells assessed as cell growth at 10^-6 M after 48 hrs by SRB assay; conditions: TK-10, 48 h, read-out: Activity
[37] = test system: HT-29; assay: Cytotoxicity against human HT-29 cells assessed as cell growth at 10^-6 M after 48 hrs by SRB assay; conditions: HT-29, 48 h, read-out: Activity
[38] = test system: NCI-H23; assay: Cytotoxicity against human NCI-H23 cells assessed as cell growth at 10^-8 M after 48 hrs by SRB assay; conditions: NCI-H23, 48 h, read-out: Activity
[39] = test system: NCI-H322M; assay: Cytotoxicity against human NCI-H322M cells assessed as cell growth at 10^-7 M after 48 hrs by SRB assay; conditions: read-out: Activity
[40] = Cytotoxicity against human NCI-ADR-RES cells after 48 hrs by SRB assay

## C=CCn1c(C)nc2cc(Nc3nc(Nc4ccc5nc(C)n(CC=C)c5c4)c4ccccc4n3)ccc21
[1]
  growth at 0.01 µM: 101%
[2]
  growth at 0.01 µM: 108%
[3]
  growth at 0.1 µM: 98%
[4]
  GI50: 1.1 µM
  LC50 (concentration giving 50% net cell kill): 4.79 µM
  TGI: 2.3 µM
[5]
  growth at 0.1 µM: 86%
[6]
  growth at 1 µM: 93%
[7]
  GI50: 0.352 µM
[8]
  growth at 0.01 µM: 99%
[9]
  growth at 0.01 µM: 92%
[10]
  growth at 0.01 µM: 94%
[11]
  growth at 100 µM: -98%
[12]
  growth at 1 µM: -4%
[13]
  growth at 1 µM: 88%
[14]
  growth at 100 µM: -24%
[15]
  growth at 0.1 µM: 95%
[16]
  GI50: 0.192 µM
  LC50: 0.701 µM
  TGI: 0.367 µM
[17]
  growth at 100 µM: -50%
[18]
  growth at 0.1 µM: 90%
[19]
  growth at 1 µM: 78%
[20]
  growth at 0.1 µM: 95%
[21]
  GI50: 2.05 µM
  TGI: 4.2 µM
[22]
  growth at 0.1 µM: 98%
[23]
  GI50: 1.43 µM
  TGI: 3.24 µM
[24]
  growth at 0.01 µM: 105%
[25]
  GI50: 0.222 µM
  LC50: > 100 µM
[26]
  growth at 0.1 µM: 101%
[27]
  growth at 0.1 µM: 91%
[28]
  growth at 0.1 µM: 93%
[29]
  growth at 0.1 µM: 102%
[30]
  growth at 0.01 µM: 98%
[31]
  growth at 1 µM: -16%
[32]
  growth at 0.1 µM: 100%
[33]
  growth at 1 µM: 72%
[34]
  GI50: 0.78 µM
  LC50: 4.69 µM
  TGI: 2.08 µM
[35]
  growth at 0.01 µM: 97%
[36]
  growth at 1 µM: 30%
[37]
  growth at 1 µM: -87%
[38]
  growth at 0.01 µM: 95%
[39]
  growth at 0.1 µM: 91%
[40]
  GI50: 1.84 µM
  LC50: > 100 µM
  TGI: 4.43 µM

## C=CCn1c(C)nc2ccc(Nc3nc(Nc4ccc(F)cc4)nc4ccccc34)cc21
[1]
  growth at 0.01 µM: 97%
[2]
  growth at 0.01 µM: 95%
[3]
  growth at 0.1 µM: 98%
[4]
  GI50: 12.3 µM
  LC50 (concentration giving 50% net cell kill): 53.9 µM
  TGI: 25.7 µM
[5]
  growth at 0.1 µM: 86%
[6]
  growth at 1 µM: 82%
[7]
  GI50: 2.84 µM
  LC50: > 100 µM
  TGI: 10.4 µM
[8]
  growth at 0.01 µM: 100%
[9]
  growth at 0.01 µM: 85%
[10]
  growth at 0.01 µM: 100%
[11]
  growth at 100 µM: -84%
[12]
  growth at 1 µM: 79%
[13]
  growth at 1 µM: 93%
[14]
  growth at 100 µM: -15%
[15]
  growth at 0.1 µM: 92%
[16]
  GI50: 5.04 µM
  LC50: 46.3 µM
  TGI: 17.8 µM
[17]
  growth at 100 µM: -34%
[18]
  growth at 0.1 µM: 84%
[19]
  growth at 1 µM: 91%
[20]
  growth at 0.1 µM: 101%
[21]
  GI50: 4.23 µM
  LC50 (concentration giving 50% net cell kill): > 100 µM
  TGI: 26 µM
[22]
  growth at 0.1 µM: 97%
[23]
  GI50: 3.26 µM
  TGI: 14.2 µM
[23]; read-out: LC50 (the source's name)
  CC50: > 100 µM
[24]
  growth at 0.01 µM: 99%
[25]
  GI50: 2.26 µM
  LC50: > 100 µM
  TGI: 5.93 µM
[26]
  growth at 0.1 µM: 98%
[27]
  growth at 0.1 µM: 80%
[28]
  growth at 0.1 µM: 87%
[29]
  growth at 0.1 µM: 97%
[30]
  growth at 0.01 µM: 94%
[31]
  growth at 1 µM: 85%
[32]
  growth at 0.1 µM: 104%
[33]
  growth at 1 µM: 83%
[34]
  GI50: 0.585 µM
  LC50: 36.2 µM
  TGI: 6.97 µM
[35]
  growth at 0.01 µM: 97%
[36]
  growth at 1 µM: 100%
[37]
  growth at 1 µM: 91%
[38]
  growth at 0.01 µM: 94%
[39]
  growth at 0.1 µM: 96%
[40]
  GI50: 4.01 µM
  LC50: > 100 µM
  TGI: 37.7 µM
